# From PMC314469, “Protein Interaction Networks by Proteome Peptide Scanning” (PLoS Biology, 2004)
# System: Myo5 SH3 domain
# Assay: SPOT analysis of cellulose-bound peptides (WISE), Myo5 SH3 domain (Dataset S4)
# Assay type: binding, Saccharomyces cerevisiae
# Conditions: SPOT analysis of cellulose-bound 14-mer yeast proteome peptides, Myo5 SH3 domain; normalized value; mean where the peptide was synthesized more than once
row,Sequence,The normalized value in BLU units [BLU]
1,NLYQRTTPAGPDPS,114.4
2,SANNYPFPQQPNGM,79.6
3,DFVTLHVPATPETE,190.5
4,AKSNKVSPEDPAVQ,371.0
5,VFKFLFHPVTPSHF,564.7
6,NAQLRKTPLEPGLE,175.9
7,NLAPFTQPDFPFQT,81.4
8,LIWHKNKPTKPDNK,300.3
9,KLAILTCPFEPPKP,173.2
10,IAKPYVLPFFPLYA,246.9
11,ITDTKLFPGNPNLM,94.6
12,NEHGMNAPSVPEFI,344.1
13,VPGEHFAPMGPNGQ,64.7
14,SRVTRKRPREPKST,829.0
15,RLQKLDDPKSPYQC,127.2
16,HLVVWNPPILPQHE,117.9
17,APKKWKAPKGPKPT,1010.5
18,GEYDLIMPIYPYRL,242.0
19,HEHNYAIPYTPATF,129.1
20,ALYHLSNPNVPKLW,195.7
21,KASSMPAPPPPPPP,10514.9
22,FFFFHLSPSIPFWF,6490.2
23,TYGFRVRPDFPVFG,357.0
24,SLVKFSCPMTPLLE,248.6
25,SENGRLTPGLPRSY,169.8
26,GARFLPAPHRPEKY,152.9
27,YASQYSRPDGPILL,113.5

# Same assay, conditions: SPOT analysis of cellulose-bound peptides probed with Myo5 SH3 domain; normalized value
row,Sequence,"The normalized value in BLU units (SPOT analysis, Myo5 SH3) [BLU]"
1,VPLPFGIPPFPMFP,11610.9
2,LELLLSLPTGPESK,142.9
3,SPSTHAAPVTPIIS,53.3
4,YLPHMSRPLGPDEV,172.0
5,NPGSMSMPGVPTSM,189.7
6,SFVGFPKPLLPRNH,205.1
7,DLLGLSTPQSPTNS,91.9
8,VLFNLDHPMVPENL,220.3
9,EAGDFEQPKGPAGA,49.8
10,VLKTLAFPINPSDI,156.0
11,QASMLRRPSLPHID,1102.4
12,NEKLHETPHLPSPV,109.3
13,ELRKLVQPITPIIK,170.0
14,DARPFLQPVDPVKL,179.1
15,EPIAHLFPPGPKNP,356.3
16,DFSSYGPPGTPGYD,108.5
17,QELRFLVPLVPLLV,119.1
18,TLKKFVLPCLPRKN,504.4
19,SPFTFLFPFLPTII,366.0
20,EARPYSEPSEPEDS,208.3
21,MFELLCHPKVPVGM,267.7

# Same assay, conditions: SPOT analysis of membrane-bound peptides, Myo5 SH3 domain; normalized value (see methods)
row,Sequence,The normalized value in BLU units [BLU]
1,YAVDKIMPPTPAKK,109.8
2,KDKARGNPEKPPYW,59.9
3,APPPKEEPAAPTST,116.7
4,AMESRVAPEIPGLI,426.0
5,EVENKLRPDLPVKN,40.7
6,KRNSKHAPFIPVKP,381.6
7,QSKTKPLPVEPASP,122.1
8,ATEAKCLPKIPSIP,136.7
9,AFWWKKNPKTPSDY,65.0
10,TVCDRLIPTSPQKT,127.7
11,AQKLKLLPEEPFQR,400.9
12,KLHEKYFPDLPKEV,110.4
13,TPQSRFPPYSPLLP,442.7
14,SKIKRSRPPPPPMD,5408.9
15,LNKTKLLPQSPILN,117.8
16,RYCFKLLPPQPGSK,189.7
17,AGQERFAPLAPMYY,100.8

row,Sequence,The normalized value in BLU units [BLU]
1,RKSDKNAPSVPQVD,394.6
2,DDIIKDHPHIPNGQ,57.8
3,NDDKKTEPDKPAFS,140.5
4,VQIKRADPHFPHDE,132.0
5,ILEGKFEPVIPREW,93.2
6,KLKIKILPEQPQLE,261.3
7,KLPKKFPPPTPLLE,19656.3
8,KKIIKDVPGTPSDK,162.7
9,GENIKITPQKPFWF,115.0
10,YVVKKNFPVSPNYT,193.9
11,TEIYKLEPREPQVD,29.1
12,RTPSKPDPMEPENT,186.9
13,SGSGRRYPQTPSYY,435.6
14,WFILKLFPHEPIEG,1272.7
15,FIKNKAKPLIPIEL,656.3
16,NSNVRIPPTVPSKI,423.1

# Same assay, conditions: SPOT analysis of membrane-synthesized peptides probed with Myo5 SH3 domain; normalized value
row,Sequence,"The normalized value in BLU units (SPOT analysis, Myo5 SH3) [BLU]"
1,YKNRKNLPTIPIRL,960.6
2,TTRKKKDPNAPKRA,274.6
3,SRYLKDHPNLPTPE,69.2
4,LMSLKRFPQLPSNT,347.7
5,RSRSKKDPGIPSNF,800.0
6,RYPFRMIPELPPKR,3574.9
7,RRKLRTVPGVPLIH,2011.1
8,VHVLKYAPDEPNSL,191.3
9,LNPNRRAPRRPLST,8004.0
10,TGESRKAPLIPLLK,214.2
11,NNSTRPIPAIPMDL,247.2
12,NQIARQIPYQPWYL,163.5
13,QHKPKVKPSKPEAK,956.3
14,VNIGRRSPYLPLQP,476.3
15,PVRCRVLPATPRQI,1474.0
16,LTKIRRRPQQPLTD,393.3
17,NDMAKPLPTPPTAE,113.6
18,SLGERFMPMAPEVY,139.8
19,DRKNRAPPQRPRFN,2434.1
20,NFPQRMMPPPPGLV,617.7
21,FASEKGAPFFPNKT,358.8
22,PKCEKIEPLSPSFK,116.4
23,IVNEKRTPALPSNL,101.8
24,RLLSKYRPSCPIIL,336.6
25,KRKAKAPPPPPPPP,4025.3
